Laboratory results: patent publication US10604489B2, “Compounds for the treatment of pain” (priority 2018, dated 2020)
Counter-ions that a name gives are not always drawn.

Legend:
μ-receptor = μ-receptor (Homo sapiens (Human), UniProt P35372); assay: Receptor binding, competitive displacement of [3H]DAMGO; conditions: 0.25 nM [3H]DAMGO, CHO cell membrane protein, 60 min at 25° C.
Method: The Ki (binding affinity) for μ-receptor was determined with a previously described method using a competitive displacement assay (Neumeyer et al., J. Med. Chem., v. 46, p. 5162-5170, 2003). Membrane protein from CHO (Chinese Hamster Ovarian) cells that stably expressed one type of the cloned human opioid receptor were incubated with 12 different concentrations of the compound in the presence of 0.25 nM [3H]DAMGO, 0.2 nM [3H]naltrindole or 1 nM [3H]U69,593 in a final volume of 1 mL of 50 mM Tris-HCl, pH 7.5 at 25° C. Incubation times of 60 min were used for [3H]DAMGO and [3H]U69,593. Because of a slower association of [3H]naltrindole with the receptor, a 3 h incubation was used with this radioligand. Samples incubated with [3H]naltrindole also contained 10 mM MgCl2 and 0.5 mM phenylmethylsulfonyl fluoride. Nonspecific binding was measured by inclusion of 10 μM naloxone. The binding was terminated by filtering the samples through Schleicher & Schuell No. 32 glass fiber filters using a Brandel 48-well cell harvester. The filters were subsequently washed three times with 3 mL of cold 50 mM Tris-HCl, pH 7.5, and were counted in 2 mL Ecoscint A scintillation fluid. For [3H]naltrindole and [3H]U69,593 binding, the filters were soaked in 0.1% polyethylenimine for at least 60 min before use. IC50 values will be calculated by least squares fit to a logarithm-probit analysis. Ki values of unlabelled compounds were calculated from the equation Ki=(IC50)/1+S where S=(concentration of radioligand)/(Kd of radioligand) (Cheng and Prusoff, Biochemical Pharmacology, v. 22, p. 3099-3108, 1973).

human μ opioid receptor = human μ opioid receptor (Homo sapiens (Human), UniProt P35372); assay: Functional activity ([35S]GTPγS binding); assay type: biochemical; conditions: [35S]GTPγS 0.080 nM, CHO cell membranes, 60 min at 30° C., filtration
Method: The [^35S]GTPγS assay measures the functional properties of a compound by quantifying the level of G-protein activation following agonist binding in studies using stably transfected cells, and is considered to be a measure of the efficacy of a compound. Membranes from CHO (Chinese Hamster Ovary) cells that stably expressed one type of the cloned human opioid receptor human were used in the experiments. In a final volume of 0.5 mL, 12 different concentrations of each test compound were incubated with 7.5 μg of CHO cell membranes that stably expressed the human p opioid receptor. The assay buffer consisted of 50 mM Tris-HCl, pH 7.4, 3 mM MgCl2, 0.2 mM EGTA, 3 μM GDP, and 100 mM NaCl. The final concentration of [35S]GTPγS was 0.080 nM. Nonspecific binding was measured by inclusion of 10 μM GTPγS. Binding was initiated by the addition of the membranes. After an incubation of 60 min at 30° C., the samples were filtered through Schleicher & Schuell No. 32 glass fiber filters. The filters were washed three times with cold 50 mM Tris-HCl, pH 7.5, and were counted in 2 mL of Ecoscint scintillation fluid.

SMILES	Ki (μ-receptor) [nM]	EC50 (human μ opioid receptor) [nM]
COC1(c2cccc(C(N)=O)c2)C2CCCC1CN(CCC(F)(F)F)C2 [Compound 34, 3-((1R,5S,9r)-9-methoxy-3-(3,3,3-trifluoropropyl)-3-azabicyclo[3.3.1]nonan-9-yl)benzamide hydrochloride]	< 1	< 10
COC1(c2ccnc(C(N)=O)c2)C2CCCC1CN(Cc1cnco1)C2 (centres unmarked) [Compound 115, hydrochloride]	1 to 5	10 to 75
COC1(c2cccc(C(N)=O)c2)C2CCCC1CN([C@H]1C[C@@H]3[C@H](C1)C3(F)F)C2 (stereo partly drawn) [Compound 17, 3-((1R,5S,9R)-3-((1R,3r,5S)-6,6-difluorobicyclo[3.1.0]hexan-3-yl)-9-methoxy-3-azabicyclo[3.3.1]nonan-9-yl)benzamide hydrochloride]	< 1	< 10
COCCN1CC2CCCC(C1)C2(OC)c1ccnc(C(N)=O)c1 [Compound 83, 4-((1R,5S,9r)-9-methoxy-3-(2-methoxyethyl)-3-azabicyclo[3.3.1]nonan-9-yl)picolinamide hydrochloride]	1 to 5	10 to 75
COC1(c2ccnc(C(N)=O)c2)C2CCCC1CN(CCN1CCCS1(=O)=O)C2 [Compound 88, 4-((1R,5S,9r)-3-(2-(1,1-dioxidoisothiazolidin-2-yl)ethyl)-9-methoxy-3-azabicyclo[3.3.1]nonan-9-yl)picolinamide hydrochloride]	1 to 5	> 75
CCC[C@@H](C)N1CC2CCCC(C1)C2(OC)c1ccnc(C(N)=O)c1 (single isomer, unassigned) [Compound 137, hydrochloride]	1 to 5	10 to 75
COC1(c2ccnc(C(N)=O)c2)C2CCCC1CN(C1CC3(COC3)C1)C2 [Compound 81, 4-((1R,5S,9r)-9-methoxy-3-(2-oxaspiro[3.3]heptan-6-yl)-3-azabicyclo[3.3.1]nonan-9-yl)picolinamide (S)-2-hydroxysuccinate]	< 1	10 to 75
COC1(c2ccnc(C(N)=O)c2)C2CCCC1CN(C1CCOC1)C2 [Compound 74, 4-((1R,5S,9r)-9-methoxy-3-(tetrahydrofuran-3-yl)-3-azabicyclo[3.3.1]nonan-9-yl)picolinamide hydrochloride]	1 to 5	10 to 75
COC1(c2ccnc(C(N)=O)c2)C2CCCC1CN(C1CCCOC1)C2 [Compound 111, 4-((1R,5S,9r)-9-methoxy-3-(tetrahydro-2H-pyran-3-yl)-3-azabicyclo[3.3.1]nonan-9-yl)picolinamide hydrochloride]	> 5	> 75
COC1(c2cccc(C(N)=O)c2)C2CCCC1CN(CC1COC1)C2 [Compound 51, 3-((1R,5S,9r)-9-methoxy-3-(oxetan-3-ylmethyl)-3-azabicyclo[3.3.1]nonan-9-yl)benzamide (S)-2-hydroxysuccinate]	< 1	10 to 75
COC1(c2ccnc(C(N)=O)c2)C2CCCC1CN(Cc1ccncc1)C2 [Compound 69, 4-((1R,5S,9r)-9-methoxy-3-(pyridin-4-ylmethyl)-3-azabicyclo[3.3.1]nonan-9-yl)picolinamide hydrochloride]	> 5	> 75
COC1(c2cccc(C(N)=O)c2)C2CCCC1CN(C1CCC3(CC1)COC3)C2 [Compound 3, 3-((1R,5S,9r)-9-methoxy-3-(2-oxaspiro[3.5]nonan-7-yl)-3-azabicyclo[3.3.1]nonan-9-yl)benzamide (S)-2-hydroxysuccinate]	< 1	< 10
CCOC1(c2cccc(C(N)=O)c2)C2CCCC1CN(CC1CC1)C2 [Compound 30, 3-((1R,5S,9r)-3-(cyclopropylmethyl)-9-ethoxy-3-azabicyclo[3.3.1]nonan-9-yl)benzamide hydrochloride]	< 1	< 10
COC1(c2ccnc(C(N)=O)c2)C2CCCC1CN(C(C)(C)C)C2 [Compound 107, 4-((1R,5S,9r)-3-(tert-butyl)-9-methoxy-3-azabicyclo[3.3.1]nonan-9-yl)picolinamide hydrochloride]	1 to 5	> 75
COC1(c2ccnc(C(N)=O)c2)C2CCCC1CN(Cc1cccnc1)C2 [Compound 68, 4-((1R,5S,9r)-9-methoxy-3-(pyridin-3-ylmethyl)-3-azabicyclo[3.3.1]nonan-9-yl)picolinamide dihydrochloride]	1 to 5	10 to 75
COC[C@H](C)N1CC2CCCC(C1)C2(OC)c1ccnc(C(N)=O)c1.Cl (single isomer, unassigned) [Compound 61, hydrochloride]	1 to 5	10 to 75
COC1(c2cccc(C(N)=O)c2)C2CCCC1CN(C1CC1)C2 [Compound 38, 3-((1R,5S,9r)-3-cyclopropyl-9-methoxy-3-azabicyclo[3.3.1]nonan-9-yl)benzamide hydrochloride]	< 1	10 to 75
COC1(c2cccc(C(N)=O)c2)C2CCCC1CN(C1CCC(F)(F)CC1)C2 [Compound 9, 3-((1R,5S,9r)-3-(4,4-difluorocyclohexyl)-9-methoxy-3-azabicyclo[3.3.1]nonan-9-yl)benzamide hydrochloride]	< 1	10 to 75
COC1(c2cccc(C(N)=O)c2)C2CCCC1CN(C[C@@H]1C[C@@H]3C[C@@H]3C1)C2 (stereo partly drawn) [Compound 156, 3-((1R,5S,9R)-3-((1R,3r,5S)-bicyclo[3.1.0]hexan-3-ylmethyl)-9-methoxy-3-azabicyclo[3.3.1]nonan-9-yl)benzamide hydrochloride]	< 1	< 10
COC1(c2cccc(C(N)=O)c2)C2CCCC1CN(CC1(O)Cc3ccccc3C1)C2 [Compound 58, 3-((1R,5S,9r)-3-((2-hydroxy-2,3-dihydro-1H-inden-2-yl)methyl)-9-methoxy-3-azabicyclo[3.3.1]nonan-9-yl)benzamide hydrochloride]	< 1	< 10
COC1(c2cccc(C(N)=O)c2)C2CCCC1CN(Cc1cnn[nH]1)C2 [Compound 75, 3-((1R,5S,9r)-3-((1H-1,2,3-triazol-5-yl)methyl)-9-methoxy-3-azabicyclo[3.3.1]nonan-9-yl)benzamide hydrochloride]	< 1	< 10
COC1(c2ccnc(C(N)=O)c2)C2CCCC1CN(Cc1ccn[nH]1)C2 [Compound 100, 4-((1R,5S,9r)-3-((1H-pyrazol-5-yl)methyl)-9-methoxy-3-azabicyclo[3.3.1]nonan-9-yl)picolinamide hydrochloride]	< 1	10 to 75
COC1(c2cccc(C(N)=O)c2)C2CCCC1CN([C@H]1CCCOC1)C2.Cl (single isomer, unassigned) [Compound 140, hydrochloride]	< 1	10 to 75
COC[C@@H](C)N1CC2CCCC(C1)C2(OC)c1ccnc(C(N)=O)c1 (single isomer, unassigned) [Compound 62, hydrochloride]	> 5	> 75
COC1(c2ccnc(C(N)=O)c2)C2CCCC1CN([C@H]1C[C@@H]3[C@H](C1)C3(F)F)C2 (stereo partly drawn) [Compound 18, 4-((1R,5S,9R)-3-((1R,3r,5S)-6,6-difluorobicyclo[3.1.0]hexan-3-yl)-9-methoxy-3-azabicyclo[3.3.1]nonan-9-yl)picolinamide hydrochloride]	< 1	< 10
COC1(c2ccnc(C(N)=O)c2)C2CCCC1CN(CC1(O)CC1)C2 [Compound 72, 4-((1R,5S,9r)-3-((1-hydroxycyclopropyl)methyl)-9-methoxy-3-azabicyclo[3.3.1]nonan-9-yl)picolinamide hydrochloride]	1 to 5	> 75
COC1(c2cccc(C(N)=O)c2)C2CCCC1CN(C1CC3(CCC3)C1)C2 [Compound 129, 3-((1R,5S,9r)-9-methoxy-3-(spiro[3.3]heptan-2-yl)-3-azabicyclo[3.3.1]nonan-9-yl)benzamide hydrochloride]	< 1	< 10
COC1(c2ccnc(C(N)=O)c2)C2CCCC1CN(C1CC(c3ccccc3)C1)C2 [Compound 87, 4-((1R,5S,9R)-9-methoxy-3-((1r,3R)-3-phenylcyclobutyl)-3-azabicyclo[3.3.1]nonan-9-yl)picolinamide hydrochloride]	< 1	< 10
